Experimental data from ChEMBL document CHEMBL4651402, “Screening of ~5500 FDA-approved drugs and clinical candidates for anti-SARS-CoV-2 activity” (2021).

Tested on: SARS-CoV-2
Test: microbe, parasite or virus in culture
Conditions: Severe acute respiratory syndrome coronavirus 2, Vero C1008, 48 h

SMILES | IC50 [µM] | IC50 (read-out: pIC50 (converted)) [µM]
O=[N+]([O-])c1cccc2cn[nH]c12 [7-NITROINDAZOLE] | > 20 | > 20
Cn1c(=O)c2nc(C3CCCC3)[nH]c2n(C)c1=O [8-CYCLOPENTYLTHEOPHYLLINE] | > 20 | > 20
CC(C)(O)CC[C@@H](O)[C@](C)(O)[C@H]1CC[C@@]2(O)C3=CC(=O)[C@@H]4C[C@@H](O)[C@@H](O)C[C@]4(C)[C@H]3CC[C@]12C [20-HYDROXYECDYSONE] | > 20 | > 20
C[C@@H](N)[C@@H](O)c1ccccc1 [(1S,2R)-PHENYLPROPANOLAMINE] | > 20 | > 20
CC(C)=CCN1CC[C@]2(C)c3cc(O)ccc3C[C@H]1[C@H]2C [(+)-PENTAZOCINE] | > 20 | > 20
N[C@H]1C[C@@H]1c1ccccc1 [(+)-TRANYLCYPROMINE] | > 20 | > 20
N[C@H](CO)C(=O)O [(D)-SERINE] | > 20 | > 20
O=C(O)[C@H]1CCCNC1 [(S)-NIPECOTIC ACID] | > 20 | > 20
O[C@@H](c1cc(C(F)(F)F)nc2c(C(F)(F)F)cccc12)[C@H]1CCCCN1 [(S,R)-MEFLOQUINE] | > 20 | > 20
CC(C)(O)CC(=O)O [.BETA.-HYDROXYISOVALERIC ACID] | > 20 | > 20
Nc1nc(NC2CC2)c2ncn([C@H]3C=C[C@@H](CO)C3)c2n1 [ABACAVIR] | > 20 | > 20
O=C(NCc1ccncc1)C12CC3CC(C1)CC(c1ccc(Cl)cc1)(C3)C2 [ABC-294640] | > 20 | > 20
CN(C)Cc1c(C(=O)NCCOc2ccc(C(=O)NO)cc2)oc2ccccc12 [ABEXINOSTAT] | > 20 | > 20
C[C@]12CC[C@H](O)CC1=CC[C@@H]1[C@@H]2CC[C@]2(C)C(c3cccnc3)=CC[C@@H]12 [ABIRATERONE] | > 20 | > 20
C=CC(=O)Nc1cccc(Oc2nc(Nc3ccc(N4CCN(C)CC4)c(F)c3)nc3[nH]ccc23)c1 [ABIVERTINIB] | > 20 | > 20
CCCc1c(OCCCCCOc2cc3c(cc2C(C)=O)CCC(C(=O)O)O3)ccc(C(C)=O)c1O (stereo not given) [ABLUKAST] | > 20 | > 20
CCCS(=O)(=O)N[C@H]1C[C@@H](N(C)c2ncnc3[nH]ccc23)C1 [ABROCITINIB] | > 20 | > 20
CN(C)CC[C@H](CSc1ccccc1)Nc1ccc(S(=O)(=O)NC(=O)c2ccc(N3CCN(Cc4ccccc4-c4ccc(Cl)cc4)CC3)cc2)cc1[N+](=O)[O-] [ABT 737] | > 20 | > 20
c1ccc(N2CCN(Cc3nc4ccccc4[nH]3)CC2)nc1 [ABT-724] | > 20 | > 20
COc1ccc(S(=O)(=O)Nc2cccnc2Nc2ccc(O)cc2)cc1 [ABT-751] | > 20 | > 20
Cc1c(NC(=O)OC[C@@H]2COCCN2)cn2ncnc(Nc3ccc4c(cnn4Cc4cccc(F)c4)c3)c12 [AC-480] | > 20 | > 20
COc1ccc(-c2cc(=O)c3c(O)cc(O)cc3o2)cc1 [ACACETIN] | > 20 | > 20
NC(=O)c1ncn([C@@H]2O[C@H](CO)[C@@H](O)[C@H]2O)c1N [ACADESINE] | > 20 | > 20
CCCC(=O)Nc1ccc(OCC(O)CNC(C)C)c(C(C)=O)c1 (stereo not given) [ACEBUTOLOL] | > 20 | > 20
CCN(CC)CCNC(=O)c1ccc(NC(C)=O)cc1 [ACECAINIDE] | > 20 | > 20
CC(=O)OC1CN2CCC1CC2 (stereo not given) [ACECLIDINE] | > 20 | > 20
O=C(O)COC(=O)Cc1ccccc1Nc1c(Cl)cccc1Cl [ACECLOFENAC] | > 20 | > 20
CC(=O)Nc1ccc(S(=O)(=O)c2ccc(NC(C)=O)cc2)cc1 [ACEDAPSONE] | > 20 | > 20

SMILES | IC50 [µM] | IC50 (read-out: pIC50 (converted)) [µM]
Nc1ccc(S(=O)(=O)c2ccc(NCC(=O)O)cc2)cc1 [ACEDIASULFONE] | > 20 | > 20
CC(=O)Nc1ccc(C(=O)O)cc1 [ACEDOBEN] | > 20 | > 20
Cn1c(=O)c2c(ncn2CC(=O)O)n(C)c1=O [ACEFYLLINE] | > 20 | > 20
CC(=O)NC(CCC(=O)O)C(=O)O (stereo not given) [ACEGLUMATE] | > 20 | > 20
COc1ccc2c(c1)c(CC(=O)OCC(=O)O)c(C)n2C(=O)c1ccc(Cl)cc1 [ACEMETACIN] | > 20 | > 20
CC(=O)CC(c1ccc([N+](=O)[O-])cc1)c1c(O)c2ccccc2oc1=O (stereo not given) [ACENOCOUMAROL] | > 20 | > 20
CC(=O)Nc1ccc(O)cc1 [ACETAMINOPHEN] | > 20 | > 20
CC(=O)Nc1ccccc1 [ACETANILIDE] | > 20 | > 20
CC(=O)Nc1nnc(S(N)(=O)=O)s1 [ACETAZOLAMIDE] | > 20 | > 20
CC(=O)c1ccc(S(=O)(=O)NC(=O)NC2CCCCC2)cc1 [ACETOHEXAMIDE] | > 20 | > 20
CC(=O)NO [ACETOHYDROXAMIC ACID] | > 20 | > 20
CC(=O)Oc1cc(C)c(OC(C)=O)c2ccccc12 [ACETOMENAPHTHONE] | > 20 | > 20
CC(=O)Nc1c(I)cc(I)c(C(=O)O)c1I [ACETRIZOIC ACID] | > 20 | > 20
CC(=O)N[C@@H](Cc1ccc(O)cc1)C(=O)O [ACETYL TYROSINE] | > 20 | > 20
CC(=O)OCC[N+](C)(C)C [ACETYLCHOLINE] | > 20 | > 20
CC(=O)N[C@@H](CS)C(=O)O [ACETYLCYSTEINE] | > 20 | > 20
CC(=O)N[C@@H](Cc1c[nH]c2ccccc12)C(N)=O [ACETYLTRYPTOPHANAMIDE] | > 20 | > 20
CC(=O)NCCCCCC(=O)O [ACEXAMIC ACID] | > 20 | > 20
Cc1cnc(C(=O)O)c[n+]1[O-] [ACIPIMOX] | > 20 | > 20
COc1cc(C)c(/C=C/C(C)=C/C=C/C(C)=C/C(=O)O)c(C)c1C [ACITRETIN] | > 20 | > 20
CC(=O)OC(C)C(=O)OCC[N+](C)(C)C (stereo not given) [ACLATONIUM] | > 20 | > 20
COc1c(N2CCC/C(=C(\F)CN)C2)c(F)cc2c(=O)c(C(=O)O)cn(C3CC3)c12 [ACORAFLOXACIN] | > 20 | > 20
CC(=O)NCC1(c2ccccc2)CCN(CC2COc3ccccc3O2)CC1 (stereo not given) [ACOXATRINE] | > 20 | > 20
CC(=O)OCC(=O)Nc1cc(C#N)cc(NC(=O)COC(C)=O)c1Cl [ACREOZAST] | > 20 | > 20
Cc1ccc(/C(=C\CN2CCCC2)c2cccc(/C=C/C(=O)O)n2)cc1 [ACRIVASTINE] | > 20 | > 20
CC(=O)Nc1ccc(CC(=O)O)cc1 [ACTARIT] | > 20 | > 20
Nc1nc2c(ncn2COCCO)c(=O)[nH]1 [ACYCLOVIR] | > 20 | > 20
